Here are results for two compounds from article PMC10257657, “A flavin-monooxygenase catalyzing oxepinone formation and the complete biosynthesis of vibralactone” (Nature Communications, 2023).

Structures are written as SMILES.

Assay [1] has as its target T1, VibO (Boreostereum vibrans, UniProt A0AA82WP17, D99A).
T1 construct: full length, N-terminal His6 tag, expressed in E. coli BL21(DE3) (pET28a(+)); domains cover residues 1-653; dimer; copurified FAD
As to the kind of experiment: LC-MS peak area of product […]. The assay is classed as biochemical. Conditions: 6 0.5 mM, NADPH 0.1 mM, pH 7.5, 28 °C, 2 h; hydroxylation to 7.

In assay [2] the target is T2, VibO (Boreostereum vibrans, UniProt A0AA82WP17, D99N).
T2 construct: full length, N-terminal His6 tag, expressed in E. coli BL21(DE3) (pET28a(+)); domains cover residues 1-653; dimer; copurified FAD
T2 sequence (A0AA82WP17 entry or part of it D99N): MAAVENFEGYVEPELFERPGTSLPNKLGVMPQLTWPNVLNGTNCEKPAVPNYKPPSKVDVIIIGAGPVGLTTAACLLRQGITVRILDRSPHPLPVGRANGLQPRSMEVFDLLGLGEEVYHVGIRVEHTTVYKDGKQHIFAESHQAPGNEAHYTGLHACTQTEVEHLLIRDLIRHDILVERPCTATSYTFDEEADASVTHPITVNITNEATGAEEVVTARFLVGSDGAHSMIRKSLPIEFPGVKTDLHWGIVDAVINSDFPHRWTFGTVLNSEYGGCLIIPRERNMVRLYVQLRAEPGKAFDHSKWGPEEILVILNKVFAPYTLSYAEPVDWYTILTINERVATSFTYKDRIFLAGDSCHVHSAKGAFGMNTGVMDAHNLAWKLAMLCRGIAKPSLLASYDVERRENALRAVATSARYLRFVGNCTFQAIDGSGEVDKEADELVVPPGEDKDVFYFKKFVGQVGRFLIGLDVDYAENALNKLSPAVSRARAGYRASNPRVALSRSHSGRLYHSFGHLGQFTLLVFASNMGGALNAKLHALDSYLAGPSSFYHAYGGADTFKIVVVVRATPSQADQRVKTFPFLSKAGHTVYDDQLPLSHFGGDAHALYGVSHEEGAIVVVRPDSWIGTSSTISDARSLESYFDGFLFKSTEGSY
The experiment in a line: LC-MS peak area of product […]. The assay is classed as biochemical. Conditions: 6 0.5 mM, NADPH 0.1 mM, pH 7.5, 28 °C, 2 h; hydroxylation to 7.

Assay [3] concerns the target T3, VibO (Boreostereum vibrans, UniProt A0AA82WP17, F265Y).
T3 construct: full length, N-terminal His6 tag, expressed in E. coli BL21(DE3) (pET28a(+)); domains cover residues 1-653; dimer; copurified FAD
As to the kind of experiment: LC-MS peak area of product […]. It counts as biochemical. The following applies: 6 0.5 mM, NADPH 0.1 mM, pH 7.5, 28 °C, 2 h; hydroxylation to 7.

A further assay deals with T4, PHHY (Cutaneotrichosporon cutaneum, UniProt P15245).
T4 construct: synthesized gene expressed in E. coli; FAD-dependent
T4 sequence (P15245 2-665): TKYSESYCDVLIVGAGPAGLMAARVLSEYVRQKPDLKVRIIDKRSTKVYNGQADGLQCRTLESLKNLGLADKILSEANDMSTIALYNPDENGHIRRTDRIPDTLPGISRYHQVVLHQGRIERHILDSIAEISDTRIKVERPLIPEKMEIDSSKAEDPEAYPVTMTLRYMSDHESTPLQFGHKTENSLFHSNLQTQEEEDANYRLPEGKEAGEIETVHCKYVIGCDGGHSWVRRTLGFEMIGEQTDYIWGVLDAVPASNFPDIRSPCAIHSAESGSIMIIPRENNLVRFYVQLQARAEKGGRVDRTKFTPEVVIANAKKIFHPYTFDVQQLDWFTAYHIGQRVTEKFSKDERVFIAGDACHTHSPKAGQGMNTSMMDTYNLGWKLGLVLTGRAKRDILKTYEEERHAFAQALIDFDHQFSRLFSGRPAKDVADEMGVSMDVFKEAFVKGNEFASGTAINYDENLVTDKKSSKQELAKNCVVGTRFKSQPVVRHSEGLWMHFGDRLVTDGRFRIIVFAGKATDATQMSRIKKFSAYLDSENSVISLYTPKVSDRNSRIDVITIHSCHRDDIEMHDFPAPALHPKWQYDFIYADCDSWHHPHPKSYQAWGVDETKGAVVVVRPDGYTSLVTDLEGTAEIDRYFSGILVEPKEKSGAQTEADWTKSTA
The experiment in a line: enzyme assay, catechol production. The assay is classed as cell-based. Conditions: E. coli-expressed enzyme; purification not told in main text.

T1 sequence (A0AA82WP17 entry or part of it D99A): as the sequence (A0AA82WP17 entry or part of it D99N) above, with N99A counted along it
T3 sequence (A0AA82WP17 entry or part of it F265Y): as the sequence (A0AA82WP17 entry or part of it D99N) above, with N99D, F265Y counted along it

Turning to `CC(C)=CCc1cc(CO)ccc1O` [compound 6, 3-prenyl-4-hydroxybenzylalcohol], the “% of wild-type activity (production of 7)” value on VibO [1] came to 16%; on VibO [2], 10%; at VibO [3] it was 22%.

Turning to `Oc1ccccc1` [phenol], the “enzyme assay, catechol production” value at PHHY was “significant production of catechol was observed for PHHY incubating with phenol”.
